Experimental data reported in a melting point compilation (Tetko et al.; mined from patent text by program, amines drawn as free bases though some values may be those of a salt).

SMILES | melting point [°C]
O=C(O)Cc1ccc(Cl)cc1[N+](=O)[O-] | 156 to 159
O=C(OC(Cn1ccnc1)c1ccc2ccccc2c1)c1ccccc1 (stereo not given) | 219 to 220
O=C(CCC(=O)c1ccccc1)NC1CNCCO1 (stereo not given) | 87 to 89
N#Cc1ccccc1-c1ccc(CN2C(=O)c3ccccc3C2=O)cc1 | 150 to 153
Cc1cc2c(F)c(Oc3cc(Cl)nc(N)n3)ccc2[nH]1 | 255 to 258
O=C(Nc1c(OCc2ccccc2)cc(Br)cc1[N+](=O)[O-])C1CC1 | 191
O=C(Nc1ccc(F)cc1)Nn1cnc2ccccc2c1=O | 237 to 238
O=C(O)CCCCCCc1cn(-c2cccnc2)c2ccccc12 | 120 to 122
N#Cc1ccc(-c2nc(S)[nH]c2-c2ccc(Br)cc2)cc1 | 307 to 311
Cc1noc(C)c1-c1ncccc1OC1SCC(O)C(O)C1O (stereo not given) | 112
N#Cc1cc(C(=O)NNC(=O)c2occc2-c2ccccc2)ccc1O | 216 to 217
Cc1nc(-n2cnn(Cc3ccc(C(F)(F)F)cc3)c2=O)sc1C(=O)NCc1cccnc1 | 156 to 158
CCOC(=O)Cc1ccc(NC(=O)c2cc(Cl)ccc2OC)cc1 | 104
COc1ccc(S(=O)(=O)Nc2ccccc2NC(=O)c2ccc(F)cc2Cl)cc1 | 160 to 162
CCCCc1nc2c(C(F)(F)F)cccc2c(O)c1C(=O)O | 140 to 141
CC(C)(C)c1csc(-c2cc3cc(Cc4nc(-c5ccccc5)c(CC(=O)O)s4)ccc3o2)n1 | 174 to 180
O=C(CC1CCN(CCCn2c(=O)[nH]c3ccccc32)CC1)c1cccc(Cl)c1 | 160
CC(Cc1c[nH]c2ccccc12)(NC(=O)OC1C2CC3CC(C2)CC1C3)C(=O)NC(CN=[N+]=[N-])Cc1ccccc1 (stereo not given) | 77 to 78
O=CN1CCC(C(=O)O)=Cc2cc(Br)ccc21 | 248 to 250
CN(C)CCSC1=Nc2ccc(Br)cc2C(c2ccccc2F)=NC1 | 105 to 108
Nc1ccc([N+](=O)[O-])cc1S(=O)(=O)CCc1ccc(S(=O)(=O)O)cc1 | 248 to 253
CCCCc1nc2cccc(C(=O)OC)c2n1Cc1ccc(-c2cncnc2-c2nnn[nH]2)cc1 | 215 to 220
CC(=O)NCc1ccc(CN2CCN(c3ccc(F)cc3N)CC2)cc1 | 139 to 140
CNS(=O)(=O)Nc1cc(-c2nn(C)c(OC(F)F)c2Cl)c(Cl)cc1Cl | 133
CN1Cc2c(C#N)ncn2-c2ccc(F)c(Cl)c2C1=O | 221 to 223

SMILES | melting point [°C]
Cc1ccc(-n2c(-c3sc(Nc4ccccc4)nc3-c3ccccc3)nc3ccccc3c2=O)cc1 | 225 to 228
O=C(O)c1cnn2c(C(F)(F)F)cc(-c3ccc(Cl)cc3)nc12 | 238
CCOC(=O)C(C(=O)OCC)c1ccc(OCc2ccccc2)cc1 | 65 to 66
COC(=O)c1ccc(NC(C)=O)cc1NC(=O)NC(C)C | 153 to 155
O=Cc1ccc(Cl)c(-c2ccccc2)c1 | 84
CN(C)CCc1ccc(OCCCNc2nc(N)nn2C)cc1 | 125 to 126
CC1Cc2cc(-n3ccnc3)ccc2C1=O (stereo not given) | 103 to 106
O=C(NCCCCN1CCC(c2c[nH]c3ccccc23)CC1)c1ccc(-c2ccc(C(F)(F)F)cc2)cc1CO | 255
COc1cccc(Cc2cc3ccccc3s2)c1 | 74 to 75.5
CCOC(=O)C(C(=O)CCC(C)C)C1c2ccccc2C(=O)N1c1ccc2ccc(F)nc2n1 (stereo not given) | 140
CCCCc1ccc(C(=O)O)cc1C12CC3CC(CC(C3)C1)C2 | 209 to 210
Cn1ncnc1COc1nc2c(cc1-c1ccsc1)nnn2-c1c(F)cccc1F | 171 to 172
CCCCCCCCOC(=O)c1cc(C(C)(C)C)c(OC(=O)c2cc(C(C)(C)C)c(O)c(C(C)(C)C)c2)c(C(C)(C)C)c1 | 94 to 97
CCOC(=O)c1[nH]c2cc(F)ccc2c1NCCC(=O)c1ccccc1 | 265 to 270
CC(=O)NC[C@H]1CN(c2ccc3c(c2)CCS(=O)(=O)C3)C(=O)O1 | 177 to 178
N/N=C/c1ccc(-c2ncn(-c3ccc(OC(F)(F)F)cc3)n2)cc1 | 222 to 226
Cc1c(N2CC(F)[C@](C)(N)C2)c(F)cc2c(=O)c(C(=O)O)cn([C@@H]3C[C@@H]3F)c12 (stereo not given in full) | 215 to 217
CCOC(=O)c1ccc(COc2cc(O)c(C(C)=O)cc2CC)cc1O | 145 to 146
COc1ccc(-c2c(C)[nH]c(=S)n2Nc2cccc(Cl)c2)cc1 | 226
Cc1ccc(S(=O)(=O)OCCCC(O)c2cccc3c(=O)c(C)c(-c4ccccc4)oc23)cc1 (stereo not given) | 123 to 124
O=C1c2ccccc2-c2oc(=O)c3ccccc3c21 | 254 to 256
COc1ccc(-c2nc3ccc(OC)cc3c(Br)c2Cl)cc1 | 184 to 185
COc1cc(Oc2cccc(C(F)(F)F)c2)nc(C(=O)NCc2ccccc2)c1 | 87 to 92
CCCCCCCCCCCCCCCCNC(=O)c1cc(OCCS(C)(=O)=O)c2ccccc2c1O | 107 to 109
NS(=O)(=O)c1ccc(-c2cccn2-c2ccc(F)cc2)cc1 | 160 to 161
